Biological target: T1, Axl (Homo sapiens, UniProt P30530)
T1 construct: endogenous in cells; host or cells: HeLa cells
T1 sequence (P30530 26-894): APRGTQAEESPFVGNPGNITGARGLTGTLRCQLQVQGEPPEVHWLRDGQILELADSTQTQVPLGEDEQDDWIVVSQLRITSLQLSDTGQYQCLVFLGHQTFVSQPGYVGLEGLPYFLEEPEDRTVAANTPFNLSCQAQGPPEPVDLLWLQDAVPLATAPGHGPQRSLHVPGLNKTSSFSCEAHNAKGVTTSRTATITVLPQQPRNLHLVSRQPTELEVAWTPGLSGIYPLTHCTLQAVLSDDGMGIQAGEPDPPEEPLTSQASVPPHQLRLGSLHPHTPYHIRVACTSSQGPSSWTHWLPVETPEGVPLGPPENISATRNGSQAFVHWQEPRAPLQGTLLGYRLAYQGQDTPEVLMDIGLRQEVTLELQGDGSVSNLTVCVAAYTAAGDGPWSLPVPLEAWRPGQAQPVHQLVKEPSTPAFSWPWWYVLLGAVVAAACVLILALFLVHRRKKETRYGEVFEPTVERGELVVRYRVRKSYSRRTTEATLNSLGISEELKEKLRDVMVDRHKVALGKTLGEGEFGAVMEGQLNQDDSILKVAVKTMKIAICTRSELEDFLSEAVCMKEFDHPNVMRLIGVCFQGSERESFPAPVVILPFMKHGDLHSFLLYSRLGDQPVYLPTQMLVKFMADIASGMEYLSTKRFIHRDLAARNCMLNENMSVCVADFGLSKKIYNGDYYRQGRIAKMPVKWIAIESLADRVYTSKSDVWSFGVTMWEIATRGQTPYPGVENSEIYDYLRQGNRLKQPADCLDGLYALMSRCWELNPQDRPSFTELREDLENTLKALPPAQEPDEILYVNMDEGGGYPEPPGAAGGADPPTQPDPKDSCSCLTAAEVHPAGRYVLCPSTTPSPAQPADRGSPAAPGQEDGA
Assay: Phospho-Akt In-Cell Western Assay (ability to inhibit Axl activity)
Type: cell-based
Settings: Hela cells, stimulated by Axl-antibody cross-linking, phospho-Akt chemiluminescence normalized to relative cell number
Method: The compounds of the invention were tested in the following assay for their ability to inhibit Axl activity.
Phospho-Akt In-Cell Western Assay
• Cell culture plate: 96 well assay plate (Corning 3610), white, clear bottom, tissue-culture treated. • Cells: Hela cells. • Starvation medium: For Axl stimulation: 0.5% FCS (fetal calf serum) in DMEM, plus Axl/Fc (extracellular domain of AXL fused to immunoglobulin Fc region) (R&D, 154-AL) 500 ng/mL. • For EGF (epidermal growth factor) stimulation: 0.5% FCS in DMEM (Dulbecco's modified Eagles medium). • Poly-L-Lysine 0.01% solution (the working solution): 10 μg/ml, dilute In PBS (phosphate buffered saline). • Axl antibody cross-linking: • 1st: Mouse anti-Axl (R&D, MAB154). • 2nd: Biotin-SP-conjugated AffiniPure goat anti-mouse IgG (H+L) (Jackson ImmunoResearch #115-065-003). • Fixing buffer: 4% formaldehyde in PBS. • Wash buffer: 0.1% TritonX-100 in PBS. • Quenching buffer: 3% H2O2, 0.1% Azide in wash buffer, Azide and hydrogen peroxide (H2O2) are added fresh. • Blocking buffer: 5% BSA in TBST (tris buffered saline plus 0.1% Tween 20). • Primary antibody: Rabbit anti-human Phospho-Akt antibody (Cell Signaling 9271): 1×250 diluted in blocking buffer. • Secondary antibody: HRP (horse radish peroxidase)-conjugated Goat anti-Rabbit secondary, stock solution: Jackson ImmunoResearch (Goat anti-Rabbit HRP, #111-035-144) 1:1 diluted in glycerol, store at −20° C. The working solution: 1×2000 dilution of stock in blocking buffer. • Chemiluminescent working solution (Pierce, 37030): SuperSignal ELISA (enzyme linked immunosorbant assay) Pico Chemiluminescent substrate. • Crystal Violet solution: Stock: 2.5% Crystal violet in methanol, filtered and kept at ambient temperature. The working solution: dilute the stock 1:20 with PBS immediately before use. • 10% SDS: working solution: 5% SDS (sodium dodecylsulfate), diluted in PBS Methods: Day 1:
A 96 well TC (tissue culture treated) plate was coated with 10 μg/mL poly-L-Lysine at 37° C. for 30 min, washed twice with PBS, and air-dried for 5 minutes before cells were added. Hela cells were seeded at 10,000 cells/well and the cells were starved in 100 μL starvation medium containing Axl/Fc for 24 hrs.
The cells were pre-treated with test compounds by adding 100 μL of 2× test compound to the starvation medium on the cells. The cells were incubated at 37° C. for 1 hr before stimulation.
The cells were stimulated by Axl-antibody cross-linking as follows: A 5×1st/2nd Axl antibody mixture was made (37.5 μg/mL 1st/100 μg/mL 2nd) in starvation medium and nutated at 4° C. with thorough mixing for 1-2 hours for clustering. The resulting mix was warmed to 37° C. 50 μL of 5× Axl 1st/2nd of antibody cluster was added to the cells and the cells were incubated at 37° C. for 5 min.
After 5 minutes stimulation, the plate was flicked to remove medium and the plate was tapped onto paper towels. Formaldehyde (4.0% in PBS, 100 μL) was added to fix the cells and the cells were incubated at ambient temperature for 20 min without shaking.
The cells were washed with a plate washer buffer to remove the formaldehyde solution. The plate was flicked to removed excess wash buffer and tapped onto paper towels. Quenching buffer (100 μL) was added to each well and the cells were incubated at ambient temperature for 20 minutes without shaking.
The cells were washed with a plate washer buffer to remove the quenching buffer. Blocking buffer (100 μL) was added and the cells were incubated at ambient temperature for at least an hour with gentle shaking.
The cells were washed with a plate washer buffer and diluted primary antibody (50 μL) was added to each well (blocking buffer was added to the negative control wells instead). The plates were incubated overnight at 4° C. with gentle shaking.
The wash buffer was removed, diluted secondary antibody (100 μL) was added, and the cells were incubated at ambient temperature for 1 hour with gentle shaking. […]

| SMILES | IC50 [nM] |
| --- | --- |
| CN1CCN(c2ccc(Nc3nc(N)n(-c4ncnc5c4C4CCC5C4)n3)cc2)CC1 (stereo not shown) [Compound 20, 1-(5,8-methano-5,6,7,8-tetrahydroquinazolin-4-yl)-N^3-(4-(4-methylpiperazin-1-yl)phenyl)-1H-1,2,4-triazole-3,5-diamine] | < 1000 |
| Cc1csc2c(-n3nc(Nc4cnc5c(c4)C4CCC(C5)N4C)nc3N)nc(Cl)nc12 (stereo not shown) [Compound 24, 1-(2-chloro-7-methylthieno[3,2-d]pyrimidin-4-yl)-N^3-(5,7-ethano-5,7,8-trihydro-6-methyl-1,6-naphthyridin-3-yl)-1H-1,2,4-triazole-3,5-diamine] | < 1000 |
| Nc1nc(Nc2ccc(N3CCC(N4CCCC4)CC3)c(F)c2)nn1-c1cc(-c2ccccc2)c2c(n1)C1CCN2CC1 [Compound 25, 1-(1,4-ethano-8-phenyl-1,2,3,4-tetrahydro-1,5-naphthyridin-6-yl)-N^3-(3-fluoro-4-(4-(pyrrolidin-1-yl)piperidin-1-yl)phenyl)-1H-1,2,4-triazole-3,5-diamine] | < 1000 |
| Cc1csc2c(-n3nc(Nc4cnc5c(c4)C4CCC(C5)N4C)nc3N)ncnc12 (stereo not shown) [Compound 26, 1-(7-methylthieno[3,2-d]pyrimidin-4-yl)-N^3-(5,7-ethano-5,6,7,8-tetrahydro-6-methyl-1,6-naphthyridin-3-yl)-1H-1,2,4-triazole-3,5-diamine] | < 1000 |
| Cc1csc2c(-n3nc(Nc4cnc5c(c4)CN4CCC5CC4)nc3N)ncnc12 [Compound 27, 1-(7-methylthieno[3,2-d]pyrimidin-4-yl)-N^3-(6,9-ethano-6,7,8,9-tetrahydro-5H-pyrido[3,2-c]azepin-3-yl)-1H-1,2,4-triazole-3,5-diamine] | < 1000 |
| CN1CCN(c2ccc(Nc3nc(N)n(-c4cc(-c5ccccc5)c5c(n4)C4CCN5CC4)n3)cn2)CC1 [Compound 28, 1-(1,4-ethano-8-phenyl-1,2,3,4-tetrahydro-1,5-naphthyridin-6-yl)-N^3-(2-(4-methylpiperazin-1-yl)pyridine-5-yl)-1H-1,2,4-triazole-3,5-diamine] | < 1000 |
| Nc1nc(Nc2ccc(N3CCC(N4CCCC4)CC3)nc2)nn1-c1cc(-c2ccccc2)c2c(n1)C1CCN2CC1 [Compound 29, 1-(1,4-ethano-8-phenyl-1,2,3,4-tetrahydro-1,5-naphthyridin-6-yl)-N^3-(2-(4-(pyrrolidin-1-yl)piperidin-1-yl)pyridine-5-yl)-1H-1,2,4-triazole-3,5-diamine] | < 1000 |
| Nc1nc(Nc2ccc(N3CCC(N4CCCC4)CC3)c(F)c2)nn1-c1cc(-c2cccs2)c2c(n1)C1CCN2CC1 [Compound 30, 1-(1,4-ethano-8-thiophen-2-yl-1,2,3,4-tetrahydro-1,5-naphthyridin-6-yl)-N^3-(3-fluoro-4-(4-(pyrrolidin-1-yl)piperidin-1-yl)phenyl)-1H-1,2,4-triazole-3,5-diamine] | < 1000 |
| Nc1nc(Nc2ccc(N3CCC(N4CCCC4)CC3)c(F)c2)nn1-c1cc(-c2ccncc2)c2c(n1)C1CCN2CC1 [Compound 32, 1-(1,4-ethano-8-pyridin-4-yl-1,2,3,4-tetrahydro-1,5-naphthyridin-6-yl)-N^3-(3-fluoro-4-(4-(pyrrolidin-1-yl)piperidin-1-yl)phenyl)-1H-1,2,4-triazole-3,5-diamine] | < 1000 |
| Nc1nc(Nc2ccc(N3CCNC(C(=O)O)C3)c(F)c2)nn1-c1cc(-c2ccccc2)c2c(n1)C1CCN2CC1 (stereo not shown) [Compound 33, 1-(1,4-ethano-8-phenyl-1,2,3,4-tetrahydro-1,5-naphthyridin-6-yl)-N^3-(3-fluoro-4-(3-carboxypiperazin-1-yl)phenyl)-1H-1,2,4-triazole-3,5-diamine] | 1000 to 10000 |
| CN1CCN(c2ccc(Nc3nc(N)n(-c4cc(-c5ccccc5)c5c(n4)C4CCN5CC4)n3)cc2)CC1 [Compound 35, 1-(1,4-ethano-8-phenyl-1,2,3,4-tetrahydro-1,5-naphthyridin-6-yl)-N^3-(4-(4-methylpiperazin-1-yl)phenyl)-1H-1,2,4-triazole-3,5-diamine] | < 1000 |
| Nc1nc(Nc2ccc(N3CCN(C4CC5CCC4C5)CC3)c(F)c2)nn1-c1cc(-c2ccccc2)c2c(n1)C1CCN2CC1 (stereo not shown) [Compound 36, 1-(1,4-ethano-8-phenyl-1,2,3,4-tetrahydro-1,5-naphthyridin-6-yl)-N^3-(3-fluoro-4-(4-bicyclo[2.2.1]heptan-2-ylpiperazin-1-yl)phenyl)-1H-1,2,4-triazole-3,5-diamine] | < 1000 |
| Nc1nc(Nc2ccc(N3CCN(C4CCCCC4)CC3)c(F)c2)nn1-c1cc(-c2ccccc2)c2c(n1)C1CCN2CC1 [Compound 37, 1-(1,4-ethano-8-phenyl-1,2,3,4-tetrahydro-1,5-naphthyridin-6-yl)-N^3-(3-fluoro-4-(4-cyclohexylpiperazin-1-yl)phenyl)-1H-1,2,4-triazole-3,5-diamine] | < 1000 |
| CN1CCN(c2ccc(Nc3nc(N)n(-c4ccc5c(n4)[C@@H]4C[C@H](C5)C4(C)C)n3)cc2)CC1 [Compound 38, 1-(7,7-dimethyl-(6R,8R)6,8-methano-5,6,7,8-tetrahydroquinoline-2-yl)-N^3-(4-(4-methylpiperazin-1-yl)phenyl)-1H-1,2,4-triazole-3,5-diamine] | < 1000 |
| CC1(C)[C@H]2Cc3ccc(-n4nc(Nc5ccc(N6CCN(C7CC8CCC7C8)CC6)c(F)c5)nc4N)nc3[C@@H]1C2 (stereo partly drawn) [Compound 39, 1-(7,7-dimethyl-(6R,8R)6,8-methano-5,6,7,8-tetrahydroquinoline-2-yl)-N^3-(3-fluoro-4-(4-bicyclo[2.2.1]heptan-2-ylpiperazin-1-yl)phenyl)-1H-1,2,4-triazole-3,5-diamine] | > 20000 |
| Nc1nc(Nc2ccc(N3CCC(N4CCCC4)CC3)c(F)c2)nn1-c1nnc(-c2ccccc2)c2c1C1CCC2C1 (stereo not shown) [Compound 40, 1-(5,8-methano-1-phenyl-5,6,7,8-tetrahydrophthalazine-4-yl)-N^3-(3-fluoro-4-(4-(pyrrolidin-1-yl)piperidin-1-yl)phenyl)-1H-1,2,4-triazole-3,5-diamine] | < 1000 |
